The values below come from patent publication US5262520A, “Peptides and antibodies that inhibit integrin-ligand binding” (The Scripps Research Institute, priority 1990, dated 1993).

Where no end group is shown, it is not given here.

Test [1] addresses T1, ^125 I-fibrinogen with immobilized p1 peptide (Homo sapiens, UniProt P08514).
T1 construct: for GPIIb from residue 296; made in house; no expression host
Description: Inhibition of 125I-fibrinogen binding to immobilized p1 peptide. Conditions: for inhibition of fibrinogen binding to immobilized p1 (in words): text summary of Table 7. How it is done:
Polypeptides p1, p1', and controls were immobilized on 96-well Immulon-2 microtiter plates (Dynatech Laboratories, VA). The peptides were added to the plates and maintained at 4 C for 24 hours after which the plates were washed with Hepes-Tyrode's buffer (pH 7.4) containing Tween-20. The plates were post-coated with 3% BSA for 1 hr. at 37° C. and then washed again. ^125 I-fibrinogen (50 μL at 50 nM) was allowed to bind to the peptide-coated wells for 24 hours at 22° C. which were then extensively washed and counted for bound radioactivity.
Cation dependence of binding was established in the presence of EDTA (5 mM). Two gamma-chain peptides of fibrinogen (HHLGGAKQAGDV and KYGGHHLGGAHQAGDV) inhibited the interaction of fibrinogen with immobilized pl. […] These observations are consistent with the hypothesis that RGD gamma-chain peptides interact with the same sites in GPIIb-IIIa.

The target in another test is T2, GPIIb (Homo sapiens, UniProt P08514).
T2 construct: endogenous in cells; host or cells: washed human platelets from fresh blood
Description: Chemical crosslinking of 125I-K16 to GPIIb on platelets. In kind it is binding. From the text:
Platelets were isolated from fresh human blood collected into acid/citrate/dextrose by differential centrifugation followed by gel filtration on Sepharose 2B in divalent ion-free Tyrode's buffer, pH 7.3, containing 0.1% bovine serum albumin. See, Marguerie et al., J. Biol. Chem., 225:154-161 (1980).
Platelet binding of K16 followed the protocols previously described for measuring platelet interactions with adhesive proteins and with this and other peptides. See, Ginsberg et al., J. Biol. Chem., 260:3931-3936 (1985); Lam et al., Fed. Proc. Fed. Am. Soc. Exp. Biol., 44:1126 (1985); and Marguerie et al., supra. Briefly, platelets were suspended at 4×10^8 /ml in divalent ion-free Tyrode's albumin buffer. Unless otherwise specified, Ca^2+ was added to a final concentration of 1 mM. The platelet stimulus used was 0.5 unit/ml alpha-thrombin. In assays in which fibrinogen and thrombin were present, 30 nM D-phenylalanyl-L-prolyl-arginine ketone (Calbiochem, La Jolla, Ca.) was added to the platelet suspension 5 minutes after addition of thrombin and 5 minutes before addition of fibrinogen. The radiolabeled peptide was then added to […] stimulated or nonstimulated platelets at a concentration of 30 μM, and binding proceeded for 45 min at 22° C. The selected cross-linking agent was then added. The cross-linking agent used in this study, bis(sulfosuccinimidyl) suberate (BS^3), purchased from Pierce Chemical Co. was dissolved in PBS immediately prior to use and admixed with the platelets to a final concentration of 0.2 mM. The cross-linking reactions were terminated after 10 min at 22° C. by addition of 10 mM Tris, pH 7.0.
The cell-bound ligand was recovered by centrifugation through 20% sucrose, and the cells were extracted in PBS containing 1% Nonidet P40 and 10 mM N-ethylmaleimide (Sigma). Extrated proteins were precipitated with 10% trichloroacetic acid, and the pellet obtained after centriguation was washed three times with cold 85% ethanol. The cross-linked samples were analyzed by electrophoresis (SDS-PAGE) on polyacrylamide vertical slab gels in the buffer system of Laemmli, Nature, 227 […] (1970). For disulfide bond reduction, the samples were treated with 5% 2-mercaptoethanol. Gels were dried and autoradiograms were developed with Kodak X-Omat AR films. Molecular weights were estimated on the basis of electrophoretic mobility relative to standards obtained from Diversified Biotech (MA).
Cross-linked samples were immunoprecipitated using a monoclonal antibody designated PMI-1, which recognizes the heavy chain of GPIIb. Loftus et al., Proc. Natl. Acad. Sci. USA. 84:7114 (1987). […]

[2] abbreviates: GPIIb:K16 complex, gel under reducing conditions, excised and counted.

`N=C(N)NCCC[C@H](N)C(=O)NCC(=O)N[C@@H](CC(=O)O)C(=O)N[C@@H](CO)C(=O)O` [RGDS] came in with an inhibition at 200 µM in test [1] (inhibitor 200 μM) of 52 ± 15%.
In turn, HHLGGAKQAGDV [HHLGGAKQAGDV] came in with an inhibition at 200 µM in test [1] (inhibitor 200 μM) of 57 ± 11%.
In test [1] (inhibitor 200 μM), GRGESP [GRGESP] returned an inhibition at 200 µM of 16 ± 7%.
Regarding “KYGGHHLGGAKQAGDV [K16, peptide derived from fibrinogen gamma chain]”, the “% Inhibition of ^125 I-fibrinogen binding to p1” value (“% Inhibition” for short) in test [1] (inhibitor 200 μM) worked out at 54 ± 12%. The “inhibition of fibrinogen binding to immobilized p1 (in words)” value in test [1] is on record as “inhibited”. Further, the “crosslinking of the radiolabeled peptide to the cells” value with GPIIb (50-fold excess of nonlabeled K16, thrombin-stimulated platelets, FIG. 2A) is listed as “abolished the crosslinking”. In addition, in the test with GPIIb (setting [2]), the “radioactivity in the position of light chain of GPIIb” value is listed as < 2% and the “radioactivity in the position of the heavy chain of GPIIb” value amounted to 98%. Besides, the “increase of K16 crosslinking to GPIIb” value with GPIIb (thrombin stimulation relative to nonactivated platelets, 4 experiments) is recorded as 12 fold.
On to Albumin, for which the “% Inhibition” value in test [1] (inhibitor 2 μM) came out at 12 ± 4%. For the same molecule, the “inhibition of fibrinogen binding to immobilized p1 (in words)” value in test [1] is “minimal inhibition”.
As to Fibrinogen, the “% Inhibition” value in test [1] (inhibitor 2 μM) is 82 ± 1.2%.
The molecule YVTAGRGDSPASSK [YVTAGRGDSPASSK] gave an inhibition at 200 µM in test [1] (inhibitor 200 μM) of 61 ± 16%.
`O=C(O)CN(CCN(CC(=O)O)CC(=O)O)CC(=O)O` [EDTA]: the “% Inhibition” value in test [1] (inhibitor 5000 μM) is recorded as 90 ± 8%.
